20 compounds from publication PMC5727211, “Development of Erasin: a chromone-based STAT3 inhibitor which induces apoptosis in Erlotinib-resistant lung cancer cells” (Scientific Reports, 2017) can be followed below.

One test deals with STAT3 SH2 domain (Homo sapiens, UniProt P40763). Kind of test: FP-based competitive binding assay, STAT3 SH2 domain. The conditions noted are these: mean ± s.d., three experiments; for IC50: 1 h with protein, then 1 h with peptide, read-out: STAT3 app. IC50; for inhibition at 80 µM / STAT3 inhibition: at 80 µM. As for the experimental part: (§1) The STAT family display a high degree of homology. […] Vilsmeyer-Haack formylation of 2-hydroxy acetophenones led to 3-formyl chromones, which were subsequently converted to the acyl hydrazones by reaction with hydrazides (Fig. 1). The target molecules were tested for their abilities to inhibit binding of fluorophore-labeled peptides to the SH2 domains of STAT1[24], STAT3[25], and STAT5b[26] in assays based on fluorescence polarization (FP). The more distantly related SH2 domain of the tyrosine kinase Lck served as additional specificity control[27],[28].
Assays were performed essentially as described. In brief, protein was incubated with the test compounds for 1 h at room temperature at the following protein concentrations: STAT1: 400 nM, STAT3: 210 nM, STAT5b: 300 nM, Lck SH2: 35 nM. Subsequently, the corresponding fluorophore-labeled peptide was added: STAT1: (5-carboxyfluorescein)-GpYDKPHVL-OH, derived from the interferon-γ receptor[24]; STAT3: (5-carboxyfluorescein)-GpYLPQTV-NH2, derived from the gp130 subunit of the IL-6 receptor[25]; STAT5b: (5-carboxyfluorescein)-GpYLVLDKW-OH, derived from the erythropoietin receptor[26]; Lck SH2: (5-carboxyfluorescein)-GpYEEIP-OH, derived from the middle-T antigen. After a further hour of incubation, fluorescence polarization was measured in a plate reader (Tecan Infinite F500). Apparent IC50 data shown in Tables 1, 2, and S1 and the inhibition curves shown in Fig. 2a correspond to this time point. The majority of the pipetting work was carried out using a Biomek FXp workstation (Beckman-Coulter). […]

Another test addresses T1, STAT1 SH2 domain (Homo sapiens, UniProt P42224).
T1 sequence (P42224 1-750): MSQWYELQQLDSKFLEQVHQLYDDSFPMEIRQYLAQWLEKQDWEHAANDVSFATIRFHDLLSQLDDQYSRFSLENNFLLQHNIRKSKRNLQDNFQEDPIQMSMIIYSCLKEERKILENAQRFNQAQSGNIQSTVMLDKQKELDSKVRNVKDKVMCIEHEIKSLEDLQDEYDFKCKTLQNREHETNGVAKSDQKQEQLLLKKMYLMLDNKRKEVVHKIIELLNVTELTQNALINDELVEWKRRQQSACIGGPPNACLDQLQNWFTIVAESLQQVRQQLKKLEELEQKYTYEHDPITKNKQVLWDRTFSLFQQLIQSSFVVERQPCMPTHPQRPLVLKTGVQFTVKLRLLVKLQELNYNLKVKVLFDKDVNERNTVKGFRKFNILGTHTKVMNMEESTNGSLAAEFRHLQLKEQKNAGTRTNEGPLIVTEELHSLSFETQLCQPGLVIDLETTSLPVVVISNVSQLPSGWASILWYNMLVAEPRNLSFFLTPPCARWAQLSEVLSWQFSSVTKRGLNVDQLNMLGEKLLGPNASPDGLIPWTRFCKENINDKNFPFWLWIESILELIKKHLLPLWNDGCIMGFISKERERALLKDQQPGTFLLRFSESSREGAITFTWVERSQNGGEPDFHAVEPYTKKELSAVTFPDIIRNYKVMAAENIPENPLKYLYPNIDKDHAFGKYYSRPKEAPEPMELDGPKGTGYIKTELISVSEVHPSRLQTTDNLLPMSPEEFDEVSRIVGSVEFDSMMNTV
Kind of test: FP-based competitive binding assay, STAT1 SH2 domain. Conditions: mean ± s.d., three experiments; for IC50: 1 h with protein, then 1 h with peptide, read-out: STAT1 app. IC50; for inhibition at 80 µM / STAT1 inhibition: at 80 µM. Here is the method: as §1
(§2) Assays were performed essentially as described. In brief, protein was incubated with the test compounds for 1 h at room temperature at the following protein concentrations: STAT1: 400 nM, STAT3: 210 nM, STAT5b: 300 nM, Lck SH2: 35 nM. Subsequently, the corresponding fluorophore-labeled peptide was added: STAT1: (5-carboxyfluorescein)-GpYDKPHVL-OH, derived from the interferon-γ receptor[24]; STAT3: (5-carboxyfluorescein)-GpYLPQTV-NH2, derived from the gp130 subunit of the IL-6 receptor[25]; STAT5b: (5-carboxyfluorescein)-GpYLVLDKW-OH, derived from the erythropoietin receptor[26]; Lck SH2: (5-carboxyfluorescein)-GpYEEIP-OH, derived from the middle-T antigen. After a further hour of incubation, fluorescence polarization was measured in a plate reader (Tecan Infinite F500). Apparent IC50 data shown in Tables 1, 2, and S1 and the inhibition curves shown in Fig. 2a correspond to this time point. The majority of the pipetting work was carried out using a Biomek FXp workstation (Beckman-Coulter). Buffer composition: 10 mM Tris pH 8.0, 50 mM NaCl, 1 mM EDTA, 1 mM dithiothreitol (DTT), 0.1% Nonidet P-40, and 2% DMSO.

Another test has as its target T2, Lck SH2 (Homo sapiens, UniProt P06239).
T2 construct: STAT1: 400 nM, STAT3: 210 nM, STAT5b: 300 nM, Lck SH2: 35 nM
Kind of test: FP-based competitive binding assay, Lck SH2 domain. Conditions: for Lck inhibition: at 80 µM. Here is the method: as §1, §2
Supplementary Figures and Table
No Structure app. IC50 [µM] or
Supplementary Table S1: Activities of test compounds in fluorescence polarization assays against the
SH2 domains of Lck. See the Supporting Methods for details. […]

For another test, the target named is T3, STAT5b SH2 domain (Homo sapiens, UniProt P51692).
T3 sequence (P51692 1-787): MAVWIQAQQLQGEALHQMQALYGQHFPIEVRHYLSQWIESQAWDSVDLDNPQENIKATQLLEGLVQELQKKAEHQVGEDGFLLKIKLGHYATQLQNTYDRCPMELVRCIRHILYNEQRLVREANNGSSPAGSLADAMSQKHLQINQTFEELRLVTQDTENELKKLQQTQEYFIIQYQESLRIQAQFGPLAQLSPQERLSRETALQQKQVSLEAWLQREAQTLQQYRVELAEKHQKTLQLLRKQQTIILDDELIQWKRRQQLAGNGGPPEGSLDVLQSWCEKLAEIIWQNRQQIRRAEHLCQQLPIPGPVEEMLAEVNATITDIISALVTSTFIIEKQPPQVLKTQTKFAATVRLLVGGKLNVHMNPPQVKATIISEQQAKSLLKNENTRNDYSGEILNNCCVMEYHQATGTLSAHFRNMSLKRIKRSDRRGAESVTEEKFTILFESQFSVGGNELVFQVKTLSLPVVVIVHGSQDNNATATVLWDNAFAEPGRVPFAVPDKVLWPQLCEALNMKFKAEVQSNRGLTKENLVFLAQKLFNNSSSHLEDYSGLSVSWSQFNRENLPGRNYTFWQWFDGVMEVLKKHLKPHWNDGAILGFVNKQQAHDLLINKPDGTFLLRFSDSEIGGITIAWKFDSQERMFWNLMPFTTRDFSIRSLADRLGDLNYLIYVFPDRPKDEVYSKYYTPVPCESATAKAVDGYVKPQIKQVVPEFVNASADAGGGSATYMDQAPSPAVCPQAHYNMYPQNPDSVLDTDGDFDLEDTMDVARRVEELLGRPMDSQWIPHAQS
The test can be described thus: FP-based competitive binding assay, STAT5b SH2 domain. The conditions noted are these: mean ± s.d., three experiments; for IC50: 1 h with protein, then 1 h with peptide, read-out: STAT5b app. IC50; for inhibition at 80 µM / STAT5b inhibition: at 80 µM. As for the experimental part:
as §1, §2

STAT3 SH2 domain, sequence (P40763 whole entry, the tested form may be a part): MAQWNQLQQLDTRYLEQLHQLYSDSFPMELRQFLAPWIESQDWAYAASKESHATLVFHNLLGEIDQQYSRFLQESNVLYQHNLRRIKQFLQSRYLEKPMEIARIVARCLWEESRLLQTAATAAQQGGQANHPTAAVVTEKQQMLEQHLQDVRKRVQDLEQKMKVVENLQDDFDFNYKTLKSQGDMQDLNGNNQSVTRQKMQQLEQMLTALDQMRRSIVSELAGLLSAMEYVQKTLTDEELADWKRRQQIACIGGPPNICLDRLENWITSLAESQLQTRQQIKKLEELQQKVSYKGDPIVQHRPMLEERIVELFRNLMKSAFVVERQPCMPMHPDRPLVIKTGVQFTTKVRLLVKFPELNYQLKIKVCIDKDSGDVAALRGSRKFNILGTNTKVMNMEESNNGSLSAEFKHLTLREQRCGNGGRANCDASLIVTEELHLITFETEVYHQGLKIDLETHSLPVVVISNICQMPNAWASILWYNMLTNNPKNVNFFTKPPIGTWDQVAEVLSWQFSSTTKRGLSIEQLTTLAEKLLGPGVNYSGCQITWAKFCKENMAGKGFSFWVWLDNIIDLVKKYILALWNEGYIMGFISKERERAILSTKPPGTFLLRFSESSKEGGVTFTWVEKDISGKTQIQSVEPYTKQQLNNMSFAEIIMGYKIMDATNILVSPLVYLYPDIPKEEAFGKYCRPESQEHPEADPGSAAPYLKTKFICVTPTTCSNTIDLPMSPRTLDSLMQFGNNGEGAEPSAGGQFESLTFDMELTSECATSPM
T2 sequence (P06239 127-224 limits assumed): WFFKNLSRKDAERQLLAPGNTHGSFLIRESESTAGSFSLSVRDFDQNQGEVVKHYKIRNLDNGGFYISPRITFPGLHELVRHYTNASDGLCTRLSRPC

In general, IC50 refers to the midpoint of a concentration-inhibition curve. The term inhibition denotes the change of the read-out against control, counted positive when it falls. Read a low inhibition as a response near the control. For the compound `O=C(N/N=C/c1coc2ccc(Cl)cc2c1=O)c1cccnc1` [Compound 3], the IC50 at STAT3 SH2 domain worked out at 40 ± 3 µM; at STAT1 SH2 domain it was 32 ± 11 µM. Moreover, the inhibition at 80 µM was determined as 6 ± 6% at Lck SH2 and 31 ± 4% at STAT5b SH2 domain.
Take `O=C(N/N=C/c1coc2ccc(Br)cc2c1=O)c1cccnc1` [Compound 4]: the IC50 on STAT3 SH2 domain is 25 ± 1 µM. For the same compound, the figures for the inhibition at 80 µM at STAT1 SH2 domain, on Lck SH2 and on STAT5b SH2 domain were 36 ± 6%, 13 ± 2% and 33 ± 7%, respectively.
Consider `Cc1ccc2occ(/C=N/NC(=O)c3cccnc3)c(=O)c2c1` [Compound 5], for which the inhibition at 80 µM on STAT3 SH2 domain stood at 40 ± 2%; at STAT1 SH2 domain, 12 ± 3%. The Lck inhibition entry at Lck SH2 is recorded as “no inhibition”. Further, the IC50 at STAT5b SH2 domain was 32 ± 24 µM.
With `CC(C)c1ccc2occ(/C=N/NC(=O)c3cccnc3)c(=O)c2c1` [Compound 7], the IC50 at STAT3 SH2 domain is 22 ± 1 µM; on STAT1 SH2 domain it was 39 ± 2 µM; on STAT5b SH2 domain, 52 ± 12 µM. Moreover, the Lck inhibition result at Lck SH2 is reported as “no inhibition”.
With `CC(C)(C)c1ccc2occ(C=O)c(=O)c2c1` [Compound 8a], the IC50 stood at 8.9 ± 0.8 µM on STAT3 SH2 domain, 15 ± 1.4 µM on STAT1 SH2 domain and 27.7 ± 1.5 µM at STAT5b SH2 domain.
The matching figures for `CCC(C)(C)c1ccc2occ(C=O)c(=O)c2c1` [Compound 9a]: 5.3 ± 0.4 µM, 10.7 ± 1.1 µM and 34.8 ± 4.2 µM.
`O=C(N/N=C/c1coc2ccc(-c3ccccc3)cc2c1=O)c1cccnc1` [Compound 10]: on STAT3 SH2 domain, the STAT3 inhibition amounted to 35 ± 5% inhibition at 80 µM. The STAT1 inhibition on STAT1 SH2 domain amounted to 36 ± 2% inhibition at 80 µM. Also, the Lck inhibition result on Lck SH2 is listed as “no inhibition”. Besides, at STAT5b SH2 domain, the STAT5b inhibition entry was “no inhibition at 80 µM”.
`COc1ccc2occ(/C=N/NC(=O)c3cccnc3)c(=O)c2c1` [Compound 11]: the IC50 on STAT3 SH2 domain amounted to 65 ± 1 µM. The inhibition at 80 µM is 19 ± 2% at STAT1 SH2 domain, 23 ± 2% on Lck SH2 and 30 ± 7% at STAT5b SH2 domain.
Turning to `O=C(N/N=C/c1coc2ccc([N+](=O)[O-])cc2c1=O)c1cccnc1` [Compound 12], the inhibition at 80 µM is 14 ± 2% at STAT3 SH2 domain, 3 ± 3% at STAT1 SH2 domain and 22 ± 6% at Lck SH2. Besides, on STAT5b SH2 domain, the STAT5b inhibition entry was “no inhibition at 80 µM”.
Regarding `CC(C)(C)c1ccc2occ(/C=N/NC(=O)c3ccccc3)c(=O)c2c1` [Compound 13], the IC50 at STAT3 SH2 domain was found to be 14 ± 2 µM; on STAT1 SH2 domain it was 35 ± 4 µM.
On to `CC(C)(C)c1ccc2occ(/C=N/NC(=O)c3ccc(O)cc3)c(=O)c2c1` [Compound 14], for which the figures for the IC50 on STAT3 SH2 domain and at STAT1 SH2 domain were 19 ± 1 µM and 77 ± 16 µM, respectively.
Take `COc1ccc(C(=O)N/N=C/c2coc3ccc(C(C)(C)C)cc3c2=O)cc1` [Compound 15]: the IC50 at STAT3 SH2 domain came to 26 ± 5 µM. 80 µM produced 34 ± 4% inhibition at STAT1 SH2 domain.
For `COc1cccc(C(=O)N/N=C/c2coc3ccc(C(C)(C)C)cc3c2=O)c1` [Compound 16], the inhibition at 80 µM on STAT3 SH2 domain was found to be 42 ± 2%; at STAT1 SH2 domain, 15 ± 2%.
`CC(C)(C)c1ccc2occ(/C=N/NC(=O)c3ccco3)c(=O)c2c1` [Compound 17]: the half-inhibitory concentration (IC50) at STAT3 SH2 domain is 14 ± 1 µM; at STAT1 SH2 domain, 49 ± 2 µM.
Take `CC(C)(C)c1ccc2occ(/C=N/NC(=O)c3cccs3)c(=O)c2c1` [Compound 18]: the IC50 at STAT3 SH2 domain turned out to be 39 ± 4 µM. At 80 µM the inhibition at STAT1 SH2 domain was 32 ± 0.1%.
For the compound `CC(C)(C)c1ccc2occ(/C=N/NC(=O)c3ccc[nH]3)c(=O)c2c1` [Compound 19], the IC50 on STAT3 SH2 domain worked out at 50 ± 7 µM. For the same compound, the STAT1 inhibition at STAT1 SH2 domain came to 9 ± 4% inhibition at 80 µM.
With `CC(C)(C)c1ccc2occ(/C=N/NC(=O)c3ccc(F)cc3)c(=O)c2c1` [Compound 20], the figures for the inhibition at 80 µM on STAT3 SH2 domain and on STAT1 SH2 domain were 31 ± 8% and 10 ± 5%, respectively.
`CC(C)(C)c1ccc2occ(/C=N/NC(=O)c3ccc(Cl)cc3)c(=O)c2c1` [Compound 21] gave an STAT3 inhibition at STAT3 SH2 domain of 20 ± 2% at 80 µM. The same compound had an STAT1 inhibition at STAT1 SH2 domain of 12 ± 4% inhibition at 80 µM.
Compound `CC(C)(C)c1ccc2occ(/C=N/NCc3ccccc3)c(=O)c2c1` [Compound 22] showed an inhibition at 80 µM at STAT3 SH2 domain of 9 ± 3%.
The same measure, in the same setting: in the case of `CC(C)(C)c1ccc2occ(/C=N/NS(=O)(=O)c3ccccc3)c(=O)c2c1` [Compound 23] it was 4 ± 3%.
